Assay results: patent US11064704B2, “Natural product formulations with improved residual insect repellent/deterrent activity” (University of Mississippi, priority 2016, dated 2021)

Assays:
Aedes aegypti = experiment: in vitro Klun and Debboun (K&D) biting deterrent bioassay; type: in vivo
Procedure: (§1) Experiments were conducted by using a six-celled in vitro Klun and Debboun (K&D) module bioassay system developed by Klun et al. (2005) for quantitative evaluation of biting deterrence. Briefly, the assay system consists of a six well reservoir with each of the 3×4 cm wells containing 6 mL of blood or feeding solution. As described by Ali et al. (2012), a feeding solution consisting of CPDA-1 and ATP was used instead of blood. Green fluorescent tracer dye (www.blacklightworld.com) was used to determine the feeding by the females. Carrot seed essential oil was initially tested to determine the biting deterrent activity. […] Essential oil and carotol were further tested against Ae. aegypti and An. quadrimaculatus in this bioassay. Treatments of carrot seed essential oil at 10 μg/cm^2 and carotol were tested at 10 and 5 μg/cm^2, whereas DEET (97% N,N-diethyl-meta-toluamide) (Sigma Aldrich, St. Louis, Mo.) at 25 nmol/cm^2 was used as positive control. All the treatments were freshly prepared in molecular biology grade 100% ethanol (Fisher Scientific Chemical Co. Fairlawn, N.J.) at the time of bioassay.
The temperature of the solution in the reservoirs was maintained at 37° C. by continuously passing warm water through the reservoir using a circulatory bath. The reservoirs were covered with a layer of collagen membrane (Devro, Sandy Run, S.C.). The test compounds were randomly applied to six 4×5 cm areas of organdy cloth and positioned over the membrane-covered CPDA-1+ATP solution with a Teflon® separator placed between the treated cloth and the six-celled module to prevent the contamination of the module. A six-celled K&D module containing five female mosquitoes per cell was positioned over cloth treatments covering the six CPDA-1+ATP solution membrane wells, and trap doors were opened to expose the treatments to these females. The number of mosquitoes biting through organdy treatments in each cell was recorded after a 3 minute exposure, and mosquitoes were prodded back into the cells to check the actual feeding. Mosquitoes were squashed and the presence of green fluorescent tracer dye (or not) in the gut was used as an indicator of feeding. A replicate consisted of six treatments: four test compounds, DEET (a standard biting deterrent) and ethanol-treated organdy as solvent control applied randomly. Sets of 5 replications each with 5 females per treatment were conducted on 2-3 different days using newly-treated organdy and a new batch of females in each replication. Treatments were replicated 10-15 times. Proportion not biting (PNB) was calculated using the procedure described by Ali et al. (2012).

mosquitoes = experiment: in vivo direct skin application bioassay
Procedure: Direct skin application bioassays were conducted by using a powder-free latex glove (Diamond Grip, Microflex Corporation, Reno, Nev.). An opening of 3×4 cm was cut through the glove to fit on dorsal surface of the hand (FIG. 1). After wearing the glove, a wristband was used to avoid the biting on the hand near the border of the glove. Approximately, 500 (±5%), consisting primarily of females were transferred to a test cage (45×45×45 cm) using an aspirator. A series of dosages were tested to determine MED for repellency as well as residual activity against mosquitoes. A single test consisted of covering the hand of a volunteer with a powder-free latex glove and treating 12 cm^2 surface area, cut through the glove, on dorsal surface of the hand. Marked skin surface area was treated with the test compound in 50 μl of total volume. Because of constrain of man power, only one volunteer who was provided with a written informed consent participated in this study. A protocol approved by the University of Mississippi Human Use Institutional Review Board (IRB protocol #15-070) was followed.
The test started when the hand treated (3×4 cm area cut through the glove on the dorsal surface) with a test compound was inserted into the mosquito cage. […] Any treatment with […] females biting during 1 min test period was considered as “passed” whereas a treatment with ≥5 bites out of 500 mosquitoes was considered as “failed”. In case of passing the next lower and in case of failure next higher serial dose was tested to reach MED. Additionally, data on the residual repellent activity was recorded by exposing the treatments to the females after every 30 minutes until the treatment failed. Carrot essential oil, carotol and DEET and the mixtures were tested.
Direct skin application bioassays were conducted by using a powder-free latex glove (Diamond Grip™, Microflex Corporation, Reno, Nev.). An opening of 3×4 cm was cut through the glove to fit on the dorsal surface of the hand. After donning the glove, a wristband was used to avoid biting on the hand near the border of the glove. Approximately 500 (±5%) mosquitoes, consisting primarily of females, were transferred to a test cage (45×45×45 cm) using an aspirator. A series of dosages were tested to determine MED for repellency as well as residual activity against mosquitoes.
A single test consisted of covering the hand of a volunteer with a powder-free latex glove and treating a 12 cm^2 surface area, cut through the glove, on the dorsal surface of the hand. Marked skin surface area was treated with the test compound in 50 μl of total volume. Because of constraints of man power, only one volunteer who was provided with a written informed consent participated in this study. A protocol approved by the University of Mississippi Human Use Institutional Review Board (IRB Protocol #15-070) was followed.
The test started when the hand treated (3×4 cm area cut through the glove on the dorsal surface) with a test compound was inserted into the mosquito cage. […] Any treatment with ≤5 females biting during the 1 min test period was considered as “passed”, whereas a treatment with ≥5 bites out of 500 mosquitoes was considered as “failed”. In case of passing, the next lower, and in case of failure, the next higher, serial dose was tested to reach MED. Additionally, data on the residual repellent activity were recorded by exposing the treatments to the females after every 30 minutes until the treatment failed. Carrot seed essential oil, carotol, geranium and lemon Eucalyptus essential oils, DEET, picaridin and the mixtures were tested.

An. quadrimaculatus = experiment: in vitro Klun and Debboun (K&D) biting deterrent bioassay; type: in vivo, Anopheles quadrimaculatus
Procedure: as §1
The temperature of the solution in the reservoirs was maintained at 37° C. by continuously passing warm water through the reservoir using a circulatory bath. The reservoirs were covered with a layer of collagen membrane (Devro, Sandy Run, S.C.). The test compounds were randomly applied to six 4×5 cm areas of organdy cloth and positioned over the membrane-covered CPDA-1+ATP solution with a Teflon® separator placed between the treated cloth and the six-celled module to prevent the contamination of the module. […] The number of mosquitoes biting through organdy treatments in each cell was recorded after a 3 minute exposure, and mosquitoes were prodded back into the cells to check the actual feeding. […] Proportion not biting (PNB) was calculated using the procedure described by Ali et al. (2012).

Row | Compound | proportion not biting (PNB) (Aedes aegypti; 25 nmol/cm^2) | residual activity: time post application at which MED level crossed (mosquitoes; 1% rate of application) | residual activity: time post application at which MED level crossed (mosquitoes; 2% rate of application) | proportion not biting (PNB) (Aedes aegypti; 5 μg/cm^2) | proportion not biting (PNB) (Aedes aegypti; 10 μg/cm^2) | biting deterrent activity (Aedes aegypti; compared with DEET) | proportion not biting (PNB) (An. quadrimaculatus; 25 nmol/cm^2) | proportion not biting (PNB) (An. quadrimaculatus; 10 μg/cm^2) | biting deterrent activity (An. quadrimaculatus; compared with DEET) | residual activity: time post application at which MED reached (mosquitoes; 8% application rate) | residual activity: time post application at which MED reached/crossed (mosquitoes; 12.5% application rate) | residual activity: time post application at which MED reached (mosquitoes; 25% application rate) | residual activity: time post application at which MED reached (mosquitoes; 50% application rate)
1 | CCN(CC)C(=O)c1cccc(C)c1 [DEET, N,N-diethyl-meta-toluamide, reference compound] | 0.85 | 1 h | 1 h | – | – | – | – | – | – | – | – | – | –
2 | CC1=CC[C@]2(C)CC[C@@H](C(C)C)[C@]2(O)CC1 [carotol] | – | – | – | 0.66 | 0.9 | comparable to DEET | 0.72 | 0.78 | comparable to DEET | 1.5 h | 1.5 h | 2 h | 2.5 h
